Experiment [1] has as its system HIV-1 RT K70Q/Q151Mc. In words: ATP-dependent rescue assay. It counts as biochemical. Conditions: WT RT vs K70Q/Q151Mc RT, TFV-terminated primers, 3.5 mM ATP. How it is done:
(§1) Template/primer (T31/P18) terminated with TFV (T/PTFV) was prepared as described in Michailidis et al. 20 nM of T/PTFV was incubated at 37°C with HIV-1 RT (60 nM), either at various concentrations of ATP (0–7 mM) for 30 minutes, or for various times (0–120 minutes) with 3.5 mM ATP, in RT buffer containing 50 mM Tris-HCl, pH 7.8, and 50 mM NaCl, and 10 mM MgCl2. […] Reactions were quenched with 100% formamide containing traces of bromophenol blue and analyzed as described above. The dissociation constants (Kd) of the various enzymes for ATP used in the rescue reactions were determined by fitting the rescue data at various ATP concentrations, using non-linear regression fitting to hyperbola.

The subject of experiment [2] is HIV-1 RT K70Q. In words: ATP-dependent rescue assay. Conditions: WT RT vs K70Q RT, TFV-terminated primers, 3.5 mM ATP. It counts as biochemical. The procedure: as §1
Experiment [3] relates to HIV-1 RT Q151Mc. In words: ATP-dependent rescue assay. It counts as biochemical. Conditions: WT RT vs Q151Mc RT, TFV-terminated primers, 3.5 mM ATP. The procedure:
as §1

In experiment [4] the test system is HIV-1 Q151Mc. To be noted: cited from earlier work; for Increase in resistance: Q151Mc.
In experiment [5] the target is T1, HIV-1 RT Q151Mc (Human immunodeficiency virus type 1 group M subtype B, UniProt P03366, A661V/F676L/F715Y/Q750M/V674I).
T1 construct: made in house; host or cells: Escherichia coli BL21
The experiment is described as follows: ATP-dependent rescue assay. It is filed as biochemical. The procedure: as §1

A further experiment has as its target T2, HIV-1 RT WT (Human immunodeficiency virus type 1 group M subtype B, UniProt P03366).
T2 construct: made in house; host or cells: Escherichia coli BL21
The experiment is described as follows: ATP-dependent rescue assay. It counts as biochemical. Conditions: rescue of TFV-terminated primer, 30 minutes, read-out: apparent KD-ATP. How it is done: as §1

Experiment [6] addresses T3, HIV-1 RT K70Q/Q151Mc (Human immunodeficiency virus type 1 group M subtype B, UniProt P03366, A661V/F676L/F715Y/K669Q/Q750M/V674I).
T3 construct: made in house; host or cells: Escherichia coli BL21
In words: ATP-dependent rescue assay. It counts as biochemical. How it is done:
as §1

The target of experiment [7] is T4, HIV-1 RT K70Q (Human immunodeficiency virus type 1 group M subtype B, UniProt P03366, K669Q).
T4 construct: made in house; host or cells: Escherichia coli BL21
In words: ATP-dependent rescue assay. It is filed as biochemical. The procedure:
as §1

In experiment [8] the test system is HIV-1 clinical isolate 1 (Q151Mc-containing). In words: Single-cycle drug susceptibility assay (MAGIC-5 cells), clinical isolate 1. It is filed as cell-based. Conditions: Human immunodeficiency virus 1; clinical isolate 1, MAGIC-5 cells. The procedure:
(§2) HIV was isolated from fresh plasma immediately after collection of clinical samples from study participants at the outpatient clinic of the AIDS Clinical Center (ACC), International Medical Center of Japan. The Institutional Review Board approved this study (IMCJ-H13-80) and a written consent was obtained from all participants.
(§3) Susceptibilities to various RT inhibitors were determined using the MAGIC-5 cells which are HeLa cells stably transfected with a β-galactosidase gene under the control of an HIV long terminal repeat promoter, and with vectors that express the CD4 receptor and the CCR5 co-receptor under the control of the CMV promoter as described previously. Briefly, MAGIC-5 cells were infected with diluted virus stock (100 blue forming units) in the presence of increasing concentrations of RT inhibitors, cultured for 48 h, fixed, and stained with X-Gal (5-bromo-4-chloro-3-indolyl-β-D-galacto-pyranoside). The stained cells were counted under a light microscope.

Another experiment deals with HIV-1 K70R. The experiment is described as follows: Single-cycle drug susceptibility assay (MAGIC-5 cells). It counts as cell-based. How it is done: (§4) The NL4-3-based molecular clone was constructed by replacing the pol-coding region with the HIV-1 BH10 strain. […] Each molecular clone was transfected into COS-7 cells. Cells were grown for 48 h, and culture supernatants were harvested and stored at −80°C until use.
as §3

In a further experiment the test system is HIV-1 K70E. Described as above. It counts as cell-based. The procedure: as §4, §3
Another experiment relates to HIV-1 Q151Mc/K70G. The experiment is described as above. It is filed as cell-based. How it is done: as §4, §3
Another experiment relates to HIV-1 Q151Mc/K70R. The description is as above. It counts as cell-based. How it is done:
as §4, §3

The next experiment has as its system HIV-1 Q151Mc/K70E. The experiment is described as above. It counts as cell-based. The procedure: as §4, §3
In experiment [9] the test system is HIV-1 Q151Mc. The description is as above. It counts as cell-based. To be noted: Human immunodeficiency virus 1, MAGIC-5. The procedure: as §4, §3
A further experiment has as its system HIV-1 K70G. The experiment is described as above. It counts as cell-based. The procedure: as §4, §3
Another experiment has as its system HIV-1 Q151Mc/K70N. The experiment is described as above. It counts as cell-based. The procedure:
as §4, §3

The next experiment has as its system HIV-1 Q151Mc/K70Q. The experiment is described as above. It counts as cell-based. The procedure: as §4, §3
The subject of another experiment is HIV-1 K70T. The experiment is described as above. It is filed as cell-based. How it is done:
as §4, §3

The test system of a further experiment is HIV-1 K70Q. The description is as above. It counts as cell-based. The procedure:
as §4, §3

Another experiment deals with HIV-1 Q151Mc/K70T. The experiment is described as above. It counts as cell-based. How it is done:
as §4, §3

The next experiment relates to HIV-1 K70N. Described as above. It is filed as cell-based. How it is done: as §4, §3
The test system of experiment [10] is HIV-1 clinical isolate 2 (Q151Mc + K70Q). The experiment is described as follows: Single-cycle drug susceptibility assay (MAGIC-5 cells), clinical isolate 2. It counts as cell-based. To be noted: Human immunodeficiency virus 1; clinical isolate 2, MAGIC-5 cells. How it is done:
as §2, §3

The next experiment deals with HIV-1 NL4-3 strain (WT). In words: microbe, parasite or virus in culture. It is filed as cell-based. To be noted: Human immunodeficiency virus 1, NL43; WT, MAGIC-5 cells, Table S1; read-out: EC50. The procedure: as §3
The test system of another experiment is HIV-1 WT. The experiment is described as follows: Single-cycle drug susceptibility assay (MAGIC-5 cells), recombinant WT clone. To be noted: Human immunodeficiency virus 1, Table S2. It counts as cell-based. How it is done:
as §4, §3

Like-named read-outs stand apart in the source and are kept apart here.

Broadly, the EC50 is the midpoint of the concentration-response curve.

Regarding `C[C@H](Cn1cnc2c(N)ncnc21)OCP(=O)(O)O` [TFV, tenofovir], the “ATP-based rescue activity of WT RT, fold faster than mutant RT” value was found to be 3 fold in the experiment with HIV-1 RT K70Q/Q151Mc [1], 1.5 fold with HIV-1 RT K70Q [2] and 2.5 fold with HIV-1 RT Q151Mc [3]. For the same compound, the Increase in resistance is 1.8 fold with HIV-1 Q151Mc [4] (Miller et al. ref 22) and 3.6 fold with HIV-1 Q151Mc [4] (Smith et al. ref 23).

As for `Nc1ncnc2c1ncn2[C@@H]1O[C@H](COP(=O)(O)OP(=O)(O)OP(=O)(O)O)[C@@H](O)[C@H]1O` [ATP, adenosine triphosphate], the Kd came out at 2300 µM on HIV-1 RT Q151Mc [5], 400 µM on HIV-1 RT WT, 3100 µM on HIV-1 RT K70Q/Q151Mc [6] and 700 µM at HIV-1 RT K70Q [7].

With `Nc1nc(NC2CC2)c2ncn([C@H]3C=C[C@@H](CO)C3)c2n1` [ABC, abacavir], the Resistance with HIV-1 Q151Mc [4] (Q151M plus the four associated mutations ref 17, 18, 19, 20, 21) is reported as 5 fold. Besides, the half-maximal effective concentration (EC50) in experiment [8] came to 16.3 ± 2.52 µM; in the experiment on HIV-1 K70R (Human immunodeficiency virus 1, MAGIC-5, K70R), 2.8 ± 0.31 µM; in the experiment with HIV-1 K70E (Human immunodeficiency virus 1, MAGIC-5, K70E), 7.3 ± 0.12 µM; in the experiment on HIV-1 Q151Mc/K70G (Human immunodeficiency virus 1, MAGIC-5, Q151Mc/K70G), 35 ± 2.7 µM; in the experiment on HIV-1 Q151Mc/K70R (Human immunodeficiency virus 1, MAGIC-5, Q151Mc/K70R) it was 14 ± 1 µM; with HIV-1 Q151Mc/K70E (Human immunodeficiency virus 1, MAGIC-5, Q151Mc/K70E) it was 34 ± 2.1 µM. In addition, the concentration giving a half-maximal response (EC50) worked out at 15 ± 2.1 µM in the experiment on HIV-1 Q151Mc [9]; 6.6 ± 0.29 µM in the experiment with HIV-1 K70G (Human immunodeficiency virus 1, MAGIC-5, K70G); 16 ± 2.1 µM in the experiment on HIV-1 Q151Mc/K70N (Human immunodeficiency virus 1, MAGIC-5, Q151Mc/K70N); 24 ± 2.9 µM in the experiment with HIV-1 Q151Mc/K70Q (Human immunodeficiency virus 1, MAGIC-5, Q151Mc/K70Q); 2.6 ± 0.21 µM in the experiment on HIV-1 K70T (Human immunodeficiency virus 1, MAGIC-5, K70T); 3.5 ± 0.6 µM with HIV-1 K70Q (Human immunodeficiency virus 1, MAGIC-5, K70Q). In addition, the EC50 in the experiment on HIV-1 Q151Mc/K70T (Human immunodeficiency virus 1, MAGIC-5, Q151Mc/K70T) came out at 25 ± 2.3 µM; in the experiment with HIV-1 K70N (Human immunodeficiency virus 1, MAGIC-5, K70N), 3.2 ± 0.3 µM; in experiment [10], 24.7 ± 2.89 µM; in the experiment on HIV-1 NL4-3 strain (WT) it was 1.6 ± 0.46 µM; in the experiment on HIV-1 WT, 1.8 ± 0.22 µM. The “Fold increase in EC50 compared to HIV-1 WT” value with HIV-1 K70R (K70R vs WT) was “(1.6) fold”; in the experiment on HIV-1 K70E (K70E vs WT) it was “(4.1) fold”; in the experiment with HIV-1 K70G (K70G vs WT) it was “(3.7) fold”; with HIV-1 K70T (K70T vs WT), “(1.4) fold”; in the experiment with HIV-1 K70Q (K70Q vs WT) it was “(1.9) fold”; with HIV-1 K70N (K70N vs WT), “(1.8) fold”. Moreover, the “Fold increase in EC50 compared to HIV-1 Q151Mc” value is “(2.5) fold” in the experiment with HIV-1 Q151Mc/K70G (Q151Mc/K70G vs Q151Mc); “(0.9) fold” in the experiment on HIV-1 Q151Mc/K70R (Q151Mc/K70R vs Q151Mc); “(2.3) fold” with HIV-1 Q151Mc/K70E (Q151Mc/K70E vs Q151Mc); “(1.1) fold” with HIV-1 Q151Mc/K70N (Q151Mc/K70N vs Q151Mc); “(1.6) fold” with HIV-1 Q151Mc/K70Q (Q151Mc/K70Q vs Q151Mc); “(1.7) fold” in the experiment on HIV-1 Q151Mc/K70T (Q151Mc/K70T vs Q151Mc).

The record behind these values is paper PMC3020970, “K70Q Adds High-Level Tenofovir Resistance to “Q151M Complex” HIV Reverse Transcriptase through the Enhanced Discrimination Mechanism” (PLoS ONE, 2011).
